PMC8752549, “Esc peptides as novel potentiators of defective cystic fibrosis transmembrane conductance regulator: an unprecedented property of antimicrobial peptides” (Cellular and Molecular Life Sciences: CMLS, 2021)
Where no end group is shown, it is not given here. [ ]: non-standard residue; d: D form.

Key:
[1] = system: F508del-CFTR; assay: CFTR-mediated transepithelial conductance (TEER), F508del-FRT; type: cell-based; settings: F508del-FRT pre-incubated 24 h with 1 µM VX-809; 10 µM peptide + 20 µM FSK, 10 min; inhibition with 30 µM PPQ102; n ≥ 6
Experimental: To evaluate CFTR activation, the same saline solution was used. Cells expressing F508del mutation were incubated with 1 µM VX-809 to favor the mutant protein rescue. After measurement of basal TEER, 20 µM FSK + 10 µM GEN as positive control, or FSK + peptides at the desired concentration were added on the epithelium apical side. Finally, 30 µM PPQ102 was added on the epithelium apical side to block CFTR, so to measure the own activity of CFTR. TEER measurement was performed at 37 °C after 10 min from the addition of each compound. From the values of TEER measured before and after CFTR inhibition, we calculated the CFTR-dependent TEER for each condition. All values of TEER were converted to transepithelial conductance (TEEC) using the formula TEEC = 1/TEER [67].

[2] = system: F508del-CFTR; assay: Inside-out patch-clamp (macro-patches), F508del-FRT cells; type: biochemical; settings: 1 mM ATP + 125 nM PKA catalytic subunit + 10 µM peptide in intracellular bath, n ≥ 3
Experimental: Whole-cell and inside-out membrane currents were recorded in FRT cells stably expressing F508del CFTR after incubation with 1 µM of the corrector VX-809 for 24 h to increase mutated CFTR membrane expression.
For inside-out patch-clamp experiments, the pipette solution contained (in mM): 150 N-methyl-D-glucamine chloride (NMDG-Cl), 3 CaCl2, 2 MgCl2, 10 Na-Hepes (pH 7.3). The bath solution for these experiments contained (in mM): 150 NMDG-Cl, 2 MgCl2, 10 EGTA, 10 Na-Hepes, 1 ATP, which was supplemented with 125 nM catalytic subunit of PKA (Promega, […]) and peptides at 10 µM. Pipette electrical resistance for both whole-cell and inside-out experiments was 3–5 MΩ.
For both patch configurations, the protocol to correlate current intensity and voltage for stimulation consisted of 500-ms voltage steps from -100 to + 100 mV or from -80 to + 120 mV in 20 mV increments, starting from a holding potential of -60 mV. The time-dependence of CFTR activation and inactivation was monitored by application of steps of 50 ms pulses to − 100, − 50, 0, 50 and 100 mV every 5 s from a holding potential of − 60 mV. The interval between steps was 4 s. Membrane currents were filtered at 1 kHz and digitized at 5 kHz by a low–pass 4–pole Bessel filter.

[3] = ivacaftor-based treatment of patients; cited from earlier work
Description: Many proof-of-concept studies have disclosed that chemically modified ATP analogs and small organic molecules (e.g., isoflavones) have good potentiation effect by enhancing CFTR channel gating. However, the expected unspecific binding of ATP analogs to other proteins implicated in physiological functions limits the development of these molecules to the clinic. Other compounds capable of improving the activity of mutant CFTR can promote its phosphorylation by inhibiting phosphodiesterase’s activity, to heighten the intracellular level of cAMP. Ivacaftor was the first CFTR potentiator approved f ...

[4] = system: null-FRT cells not expressing CFTR; assay: Whole-cell patch-clamp, null-FRT cells; type: cell-based, Fischer rat; settings: untransfected FRT, 20 µM FSK + 10 µM Esc peptides or GEN, n ≥ 3
Experimental: For whole-cell experiments the extracellular (bath) solution contained (in mM): 150 NaCl, 1 CaCl2, 1 MgCl2, 10 glucose, 10 mannitol, 10 Na-HEPES (pH 7.4). The pipette (intracellular) solution contained (in mM): 120 CsCl, 10 TEA-Cl, 0.5 EGTA, 1 MgCl2, 10 Cs-HEPES, 40 mannitol, 1 ATP. To activate CFTR, 20 µM FSK was added to the extracellular solution to phosphorylate the channel. In some samples the combination FSK + 50 µM GEN (positive control) as well as FSK + 10 µM peptides were added to the extracellular solution to test their potentiator activity.
For both patch configurations, the protocol to correlate current intensity and voltage for stimulation consisted of 500-ms voltage steps from -100 to + 100 mV or from -80 to + 120 mV in 20 mV increments, starting from a holding potential of -60 mV. The time-dependence of CFTR activation and inactivation was monitored by application of steps of 50 ms pulses to − 100, − 50, 0, 50 and 100 mV every 5 s from a holding potential of − 60 mV. The interval between steps was 4 s. Membrane currents were filtered at 1 kHz and digitized at 5 kHz by a low–pass 4–pole Bessel filter. […]
Whole-cell membrane currents were recorded in null FRT cells not expressing CFTR by using the same experimental solutions and stimulation protocols as described in the main text for F508del- FRT.

[5] = system: F508del-CFBE41o- and wt-CFBE41o- cells; type: cell-based
Experimental: (§1) To evaluate the lung epithelia integrity, FRT and CFBE41o- cells expressing mutated or functional CFTR were seeded on permeable supports (24 Millicell plates PSHT01QR1) and incubated for 24 h in their standard culture medium in the presence of peptides, at different concentration. DMSO, 0.1% v:v, final concentration) that was used to solubilize each compound was included as control. After 24 h, the medium was replaced with saline solution containing (in mM): 130 NaCl, 2.7 KCl, 1.5 KH2PO4, 1 CaCl2, 0.5 MgCl2, 10 glucose, 10 Na-Hepes (pH, 7.4). Saline solution was added to both apical and basolateral compartments of the permeable supports. Samples were incubated for 10 min at 37 °C and TEER was measured in basal conditions without CFTR activation, with the epithelial voltmeter (MILLICELL ERS-2, Millipore Burlington, MA).

[6] = system: wt-CFBE and F508del-CFBE; settings: monolayers of wt-CFBE and F508del-CFBE; cited from earlier work
Description: (§2) During the last years, several studies have been conducted to identify compounds with suitable antibacterial properties. Antimicrobial peptides (AMPs) are a promising and effective therapeutic resource. Indeed, they rapidly kill microbial pathogens by perturbing their plasma-membrane thus limiting the induction of bacterial resistance compared to conventional antibiotics. In our laboratory, we identified a frog-skin derived membrane-active cationic AMP, i.e., Esc(1–21) […]-NH2 [24], with biocidal activity against the planktonic and the biofilm forms of P ...

[7] = cited from earlier work
Description: as §2

[8] = system: P. aeruginosa pulmonary infection; settings: cited from earlier work
Description: as §2

[9] = system: F508del-FRT and wt-FRT cells; type: cell-based, Fischer rat
Experimental: as §1

Gly-Ile-Phe-Ser-Lys-Leu-Ala-Gly-Lys-Lys-Ile-Lys-Asn- DLeu -Leu-Ile-DphosphoSer-Gly-Leu-Lys-Gly-NH2 [[DLeu^14, DphosphoSer^17]Esc, Esc analog with DLeu14 and D-phosphoSer at position 17]
CFTR-mediated conductance (ΔG) compared to FSK-treated samples [1]: about twofold | current intensity at + 100 mV compared to control basal conditions [2]: ~ 2.5 fold

CC(C)(C)c1cc(C(C)(C)C)c(NC(=O)c2c[nH]c3ccccc3c2=O)cc1O [VX-770, ivacaftor]
enhanced lung function [3]: 10%

O=c1c(-c2ccc(O)cc2)coc2cc(O)cc(O)c12 [GEN, genistein]
change of ion current [4]: no significant change

GIFSKLAGKKIKN[dL]LI[dS]GLKG-NH2 [Esc(1–21)-1c, diastereomer of Esc(1–21) carrying D-Leu14 and D-Ser17]
change of TEER / transepithelial conductance (G) versus DMSO control [5]: do not alter | CFTR-mediated conductance (ΔG) compared to FSK-treated samples [1]: slightly more pronounced | promotion of re-epithelialization compared with Esc(1–21) [6]: more efficient | susceptibility to proteolytic degradation compared with Esc(1–21) [7]: less susceptible | toxicity or inflammatory side events [8]: without eliciting toxicity or inflammatory side events | effectiveness in contrasting P. aeruginosa pulmonary infection ([8]; mice): higher effectiveness than the all-L counterpart | change of TEER / transepithelial conductance (G) versus DMSO control [9]: do not alter

Gly-Ile-Phe-Ser-Lys-Leu-Ala-Gly-Lys-Lys-Ile-Lys-Asn-Leu-Leu-Ile-Ser-Gly-Leu-Lys-Gly- NH2 [Esc(1–21)]
change of TEER / transepithelial conductance (G) versus DMSO control [5]: do not alter | change of TEER / transepithelial conductance (G) versus DMSO control [9]: do not alter
